Blank lines part the entries; values can stand above or below the compound they belong to.
Legend:
[1] = Oral bioavailability in CD-1 mouse measured at 0.083 to 24 hrs by LC-MS/MS analysis; assay type: ADME, organism-based; conditions: in vivo, time 0.083-24 hrs
[2] = Volume of distribution at steady state in Sprague-Dawley rat measured at 0.083 to 24 hrs by LC-MS/MS analysis; assay type: ADME; conditions: in vivo, time 0.083-24 hrs, read-out: Vdss
[3] = Volume of distribution at steady state in CD-1 mouse measured at 0.083 to 24 hrs by LC-MS/MS analysis; assay type: ADME; conditions: in vivo, time 0.083-24 hrs, read-out: Vdss
[4] = Half life in iv dosed CD-1 mouse measured at 0.083 to 24 hrs by LC-MS/MS analysis; assay type: ADME, organism-based; conditions: in vivo, time 0.083-24 hrs
[5] = Clearance in iv dosed Sprague-Dawley rat measured at 0.083 to 24 hrs by LC-MS/MS analysis; assay type: ADME, organism-based; conditions: in vivo, time 0.083-24 hrs
[6] = Half life in iv dosed Cynomolgus monkey measured at 0.083 to 24 hrs by LC-MS/MS analysis; assay type: ADME, organism-based, Macaca fascicularis; conditions: in vivo, time 0.083-24 hrs
[7] = Oral bioavailability in […] Sprague-Dawley rat measured at 0.083 to 24 hrs by LC-MS/MS analysis; assay type: ADME, organism-based; conditions: in vivo, time 0.083-24 hrs
[8] = Metabolic stability in rat microsome assessed as intrinsic clearance incubated for 45 mins in presence of NADPH regenerating system by LC-MS/MS analysis; assay type: ADME; conditions: microsomes
[9] = Oral bioavailability in Beagle dog measured at 0.083 to 24 hrs by LC-MS/MS analysis; assay type: ADME, organism-based, Canis lupus familiaris; conditions: in vivo, time 0.083-24 hrs
[10] = Clearance in iv dosed Beagle dog measured at 0.083 to 24 hrs by LC-MS/MS analysis; assay type: ADME, organism-based, Canis lupus familiaris; conditions: in vivo, time 0.083-24 hrs
[11] = Metabolic stability in monkey microsome assessed as intrinsic clearance incubated for 45 mins in presence of NADPH regenerating system by LC-MS/MS analysis; assay type: ADME, Macaca mulatta; conditions: rhesus monkey, microsomes, read-out: CLH
[12] = Metabolic stability in Beagle dog microsome assessed as intrinsic clearance incubated for 45 mins in presence of NADPH regenerating system by LC-MS/MS analysis; assay type: ADME, Canis lupus familiaris; conditions: microsomes, read-out: CLH
[13] = Volume of distribution at steady state in Cynomolgus monkey measured at 0.083 to 24 hrs by LC-MS/MS analysis; assay type: ADME, Macaca fascicularis; conditions: in vivo, time 0.083-24 hrs, read-out: Vdss
[14] = Half life in iv dosed Sprague-Dawley rat measured at 0.083 to 24 hrs by LC-MS/MS analysis; assay type: ADME, organism-based; conditions: in vivo, time 0.083-24 hrs
[15] = Half life in iv dosed Beagle dog measured at 0.083 to 24 hrs by LC-MS/MS analysis; assay type: ADME, organism-based, Canis lupus familiaris; conditions: in vivo, time 0.083-24 hrs
[16] = Clearance in iv dosed CD-1 mouse measured at 0.083 to 24 hrs by LC-MS/MS analysis; assay type: ADME, organism-based; conditions: in vivo, time 0.083-24 hrs
[17] = Permeability of compound across apical to basolateral side in dog MDCK-MDR1 cells; assay type: ADME, cell-based, Canis lupus familiaris
[18] = Volume of distribution at steady state in Beagle dog measured at 0.083 to 24 hrs by LC-MS/MS analysis; assay type: ADME, Canis lupus familiaris; conditions: in vivo, time 0.083-24 hrs, read-out: Vdss
[19] = Metabolic stability in mouse microsome assessed as intrinsic clearance incubated for 45 mins in presence of NADPH regenerating system by LC-MS/MS analysis; assay type: ADME; conditions: microsomes, read-out: CLH
[20] = Permeability of compound across basolateral to apical side in dog MDCK-MDR1 cells; assay type: ADME, cell-based, Canis lupus familiaris
[21] = Metabolic stability in human microsome assessed as intrinsic clearance incubated for 45 mins in presence of NADPH regenerating system by LC-MS/MS analysis; assay type: ADME; conditions: microsomes
[22] = Clearance in iv dosed Cynomolgus monkey measured at 0.083 to 24 hrs by LC-MS/MS analysis; assay type: ADME, organism-based, Macaca fascicularis; conditions: in vivo, time 0.083-24 hrs
[23] = Oral bioavailability in Cynomolgus monkey measured at 0.083 to 24 hrs by LC-MS/MS analysis; assay type: ADME, organism-based, Macaca fascicularis; conditions: in vivo, time 0.083-24 hrs
[24] = Permeability of compound across apical to basolateral side in dog wild type MDCK-MDR1 cells; assay type: ADME, cell-based, Canis lupus familiaris; conditions: read-out: permeability
[25] = Permeability of compound across apical to basolateral side in dog wild type MDCK cells; assay type: ADME, cell-based, Canis lupus familiaris; conditions: read-out: permeability
[26] = Permeability of compound across basolateral to apical side in dog wild type MDCK cells; assay type: ADME, cell-based, Canis lupus familiaris; conditions: read-out: permeability
[27] = Dissociation constant, pKa of the compound; assay type: physicochemical
[28] = Permeability of compound across basolateral to apical side in dog wild type MDCK-MDR1 cells; assay type: ADME, cell-based, Canis lupus familiaris; conditions: read-out: permeability
[29] = Half life in Sprague-Dawley rat 0.3 mg/kg, iv measured at 0.083 to 24 hrs by LC-MS/MS analysis; assay type: ADME, organism-based; conditions: in vivo, time 0.083-24 hrs
[30] = Volume of distribution at steady state in Sprague-Dawley rat 3 mg/kg, po or 3 mg/kg, iv measured at 0.083 to 24 hrs by LC-MS/MS analysis; assay type: ADME, organism-based; conditions: in vivo, time 0.083-24 hrs
[31] = Oral bioavailability in Sprague-Dawley rat 3 mg/kg measured at 0.083 to 24 hrs by LC-MS/MS analysis; assay type: ADME, organism-based; conditions: in vivo, time 0.083-24 hrs
[32] = AUC (0 to 24 hrs) in Sprague-Dawley rat 0.3 mg/kg, iv measured at 0.083 to 24 hrs by LC-MS/MS analysis; assay type: ADME, organism-based; set-up: time lower 0.083 hrs, dose 0.3 mg/kg, time upper 24 hrs, route iv; conditions: in vivo
[33] = Clearance in Sprague-Dawley rat 0.3 mg/kg, iv measured at 0.083 to 24 hrs by LC-MS/MS analysis; assay type: ADME, organism-based; conditions: in vivo, time 0.083-24 hrs
[34] = Oral bioavailability in Sprague-Dawley rat 0.3 mg/kg measured at 0.083 to 24 hrs by LC-MS/MS analysis; assay type: ADME, organism-based; conditions: in vivo, time 0.083-24 hrs
[35] = Oral bioavailability in Sprague-Dawley rat 3 mg/kg, iv measured at 0.083 to 24 hrs by LC-MS/MS analysis; assay type: ADME, organism-based; conditions: in vivo, time 0.083-24 hrs
Homo sapiens [36] = species: Homo sapiens; assay: Binding affinity to human SHP2 E76K mutant assessed as change in enthalpy by isothermal titration calorimetry assay
[37] = Half life in Sprague-Dawley rat 1 mg/kg, iv measured at 0.083 to 24 hrs by LC-MS/MS analysis; assay type: ADME, organism-based; conditions: in vivo, time 0.083-24 hrs
[38] = Clearance in Sprague-Dawley rat 1 mg/kg, iv measured at 0.083 to 24 hrs by LC-MS/MS analysis; assay type: ADME, organism-based; conditions: in vivo, time 0.083-24 hrs
[39] = AUC (0 to 24 hrs) in Sprague-Dawley rat 1 mg/kg, iv measured at 0.083 to 24 hrs by LC-MS/MS analysis; assay type: ADME, organism-based; set-up: dose 1 mg/kg, time 0.083-24 hrs, route iv; conditions: in vivo
Homo sapiens [40] = species: Homo sapiens; assay: Binding affinity to human SHP2 E76K mutant assessed as change in entropy by isothermal titration calorimetry assay
[41] = Volume of distribution at steady state in Sprague-Dawley rat 3 mg/kg, po or 1 mg/kg, iv measured at 0.083 to 24 hrs by LC-MS/MS analysis; assay type: ADME, organism-based; conditions: in vivo, time 0.083-24 hrs

SMILES: Cc1nc(N2CCC3(CC2)CO[C@@H](C)[C@H]3N)c(Cl)c(=O)n1-c1cccc(Cl)c1Cl
bioavailability [1]: 119% | Vd [2]: 3.7 L/kg | Vd [3]: 4.6 L/kg | half-life [4]: 6 h | clearance [5]: 41.3 mL/min/kg | half-life [6]: 7.3 h | bioavailability [7]: 38% | CLint scaled [8]: 72 mL/min/kg | bioavailability [9]: 88% | clearance [10]: 9.2 mL/min/kg | CLint scaled [11]: 74 mL/min/kg | CLint scaled [12]: 529 mL/min/kg | Vd [13]: 4.5 L/kg | half-life [14]: 1.8 h | half-life [15]: 5.5 h | clearance [16]: 11.6 mL/min/kg | Papp A→B [17]: 18 ×10⁻⁶ cm/s | Vd [18]: 3.5 L/kg | CLint scaled [19]: 37 mL/min/kg | Papp B→A [20]: 19 ×10⁻⁶ cm/s | CLint scaled ([21]; read-out: CLH): 10 mL/min/kg | clearance [22]: 8.3 mL/min/kg | bioavailability [23]: 53%

SMILES: Cc1nc(N2CCC3(CC2)CO[C@@H](C)[C@H]3N)cc(=O)n1-c1cccc(Cl)c1Cl (stereo in doubt)
bioavailability [1]: 99% | Vd [2]: 2.5 L/kg | Vd [3]: 2.6 L/kg | half-life [4]: 3.5 h | clearance [5]: 5.8 mL/min/kg | half-life [6]: 9.4 h | bioavailability [7]: 80% | CLint scaled [8]: 0.8 mL/min/kg | bioavailability [9]: 106% | clearance [10]: 4.2 mL/min/kg | CLint scaled [11]: 21 mL/min/kg | CLint scaled [12]: 17 mL/min/kg | Vd [13]: 3.4 L/kg | half-life [14]: 5.9 h | half-life [15]: 8.6 h | clearance [16]: 9.2 mL/min/kg | Papp A→B [17]: 12 ×10⁻⁶ cm/s | Vd [18]: 2.9 L/kg | CLint scaled [19]: 28 mL/min/kg | Papp B→A [20]: 32 ×10⁻⁶ cm/s | CLint scaled ([21]; read-out: CL): 0.7 mL/min/kg | clearance [22]: 4.2 mL/min/kg | bioavailability [23]: 89%

SMILES: N[C@@H]1CCCC12CCN(c1nc3[nH]nc(-c4cccc(Cl)c4Cl)c3c(=O)[nH]1)CC2
bioavailability [34]: 3% | Papp A→B [24]: 0.3 ×10⁻⁶ cm/s | half-life [29]: 2.7 h | Papp A→B [25]: 0.27 ×10⁻⁶ cm/s | Vdss [30]: 2.2 L/kg | Papp B→A [26]: 3.64 ×10⁻⁶ cm/s | CLint scaled [8]: 26 mL/min/kg | CLint scaled ([21]; read-out: CL): 2 mL/min/kg | Papp B→A [28]: 9.5 ×10⁻⁶ cm/s | clearance [33]: 12 mL/min/kg

SMILES: C[C@@H]1OCC2(CCN(c3cnc4c(-c5cccc(Cl)c5Cl)n[nH]c4n3)CC2)[C@@H]1N
Papp A→B [24]: 6.4 ×10⁻⁶ cm/s | Papp A→B [25]: 9 ×10⁻⁶ cm/s | Papp B→A [26]: 10 ×10⁻⁶ cm/s | Papp B→A [28]: 10.2 ×10⁻⁶ cm/s

Results, then the compound that gave them:

Papp A→B [24]: 8.6 ×10⁻⁶ cm/s | Papp A→B [25]: 12.4 ×10⁻⁶ cm/s | Papp B→A [26]: 25 ×10⁻⁶ cm/s | pKa [27]: 9.3 | Papp B→A [28]: 40.7 ×10⁻⁶ cm/s
SMILES: CCNc1nccc(-c2n[nH]c3nc(N4CCC5(CC4)CO[C@@H](C)[C@H]5N)cnc23)c1Cl

Papp A→B [24]: 2.1 ×10⁻⁶ cm/s | half-life [29]: 4.8 h | Papp A→B [25]: 4.2 ×10⁻⁶ cm/s | Vdss [30]: 12.9 L/kg | Papp B→A [26]: 8 ×10⁻⁶ cm/s | bioavailability [31]: 38% | AUC(0-t) [32]: 0.314 µM·h | pKa [27]: 10.4 | Papp B→A [28]: 28 ×10⁻⁶ cm/s | clearance [33]: 37 mL/min/kg
SMILES: CNc1nccc(-c2n[nH]c3nc(N4CCC(C)(N)CC4)cnc23)c1Cl

Papp A→B [24]: 6 ×10⁻⁶ cm/s | bioavailability [35]: 70% | Papp A→B [25]: 6 ×10⁻⁶ cm/s | deltaH (Homo sapiens [36]): -3.67 kcal/mol | Papp B→A [26]: 6.8 ×10⁻⁶ cm/s | half-life [37]: 13 h | pKa [27]: 10.4 | CL [38]: 70% | AUC(0-t) [39]: 2 µM·h | -TdeltaS (Homo sapiens [40]): -5.44 kcal/mol | Vdss [41]: 21 L/kg | Papp B→A [28]: 8.5 ×10⁻⁶ cm/s
SMILES: CC1(N)CCN(c2cnc3c(-c4cccc(Cl)c4Cl)n[nH]c3n2)CC1
